As a reminder, the GI50 is the concentration at which growth is held to half of that of the control. As usually defined, the TGI is the concentration giving total growth inhibition. A lower TGI goes with greater sensitivity of the cells.

Where “and” joins values, the source holds several entries; their conditions need not be identical. Equal entries are not always repeated.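 Values below derive from 48-hour exposures of cells grown in 96-well plates, with endpoints linearly interpolated between the two concentrations bracketing the appropriate inhibition level. GI50 marks 50% less growth. TGI marks complete inhibition of growth.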 Where only a bound is given, the exact number is not on record here.

Consider eleven compounds from PubChem BioAssay (NCI).

Among the test systems are LOX IMVI melanoma; SF-268 CNS; RXF 393 renal; MOLT-4 leukemia; HCT-15 colon; CAKI-1 renal; COLO 205 colon; SNB-19 CNS; M14 melanoma; SR leukemia.
Assay in all cases: DTP human tumour cell line panel, 48 h

As for `O=C(NN1C(=O)CSC12CCCC2)C(O)c1ccccc1` (stereo unspecified), the GI50 with LOX IMVI melanoma, with SF-268 CNS, in the experiment with RXF 393 renal, in the experiment with MOLT-4 leukemia, with HCT-15 colon and in the experiment on CAKI-1 renal was > 100 µM in each case. Besides, the GI50 in the experiment on COLO 205 colon, in the experiment with SNB-19 CNS and in the experiment on M14 melanoma was > 100 µM each time. Besides, the TGI in the experiment with LOX IMVI melanoma, in the experiment on SF-268 CNS, in the experiment with RXF 393 renal, in the experiment on MOLT-4 leukemia, with HCT-15 colon and in the experiment with CAKI-1 renal was > 100 µM each time. The TGI with COLO 205 colon, in the experiment on SNB-19 CNS and with M14 melanoma was > 100 µM throughout.

Take `COC(=O)C(=O)C(C(=O)C=C(C)C)C(=O)C(=O)Nc1nc2ccc([N+](=O)[O-])cc2s1` (stereo unspecified): the TGI with LOX IMVI melanoma is > 100 µM; in the experiment on SF-268 CNS it was > 100 µM; in the experiment on RXF 393 renal, 45.2 µM; in the experiment on MOLT-4 leukemia, > 100 µM; with HCT-15 colon, > 100 µM; in the experiment on CAKI-1 renal, 94.7 µM. Also, the TGI with COLO 205 colon, in the experiment with SNB-19 CNS and in the experiment on M14 melanoma was > 100 µM each time.

As for `C=C1C(=O)OC2CC3(C)CCCC(C)C3=CC12` (stereo unspecified), the TGI turned out to be 4.42 µM in the experiment on LOX IMVI melanoma; 23.1 µM in the experiment on SF-268 CNS; 9.04 µM in the experiment on MOLT-4 leukemia; 7.04 µM in the experiment on SR leukemia; 5.08 µM in the experiment on HCT-15 colon; 9.27 µM in the experiment on CAKI-1 renal. Further, the figures for the TGI with COLO 205 colon, with SNB-19 CNS and in the experiment on M14 melanoma were 2.56 µM, 25.8 µM and 16.1 µM, respectively.

In the case of `N#Cc1cc(NC(=O)c2ccccc2)c(=O)n2c1[nH]c1ccccc12`, the TGI in the experiment on SF-268 CNS is > 100 µM; in the experiment on RXF 393 renal it was 50.7 µM; with MOLT-4 leukemia it was > 100 µM; in the experiment on HCT-15 colon, > 100 µM; in the experiment with CAKI-1 renal, > 100 µM; with COLO 205 colon, > 100 µM. In addition, the results for the TGI in the experiment on SNB-19 CNS and with M14 melanoma were 74.7 µM and 76.9 µM, respectively.

On to `COc1ccc(CNc2cnc3cc(N)cc(N)c3n2)cc1`, for which the GI50 was 17.4 µM in the experiment on LOX IMVI melanoma; 28.9 µM in the experiment on SF-268 CNS; 22.3 µM in the experiment with RXF 393 renal; 15.9 µM in the experiment with MOLT-4 leukemia; 24.6 µM with HCT-15 colon; 28.9 µM in the experiment with CAKI-1 renal. Also, the figures for the GI50 with COLO 205 colon, in the experiment on SNB-19 CNS and in the experiment on M14 melanoma were 33.6 µM, 52.3 µM and 20.5 µM, respectively. In addition, the TGI came out at 32 µM in the experiment with LOX IMVI melanoma; 81.8 µM in the experiment with SF-268 CNS; 49.8 µM with RXF 393 renal; 43.2 µM in the experiment on MOLT-4 leukemia; 68.6 µM with HCT-15 colon; 68.6 µM with CAKI-1 renal. Moreover, the TGI in the experiment with COLO 205 colon is > 100 µM; in the experiment on SNB-19 CNS, > 100 µM; with M14 melanoma it was 43.9 µM.

For the compound `COc1ccc(C[C@H](N)C(=O)N2C[C@@H](CO)C[C@@H](n3cnc4c(N(C)C)ncnc43)C2)cc1`, the TGI in the experiment on LOX IMVI melanoma, with SF-268 CNS, in the experiment with MOLT-4 leukemia, in the experiment with SR leukemia, in the experiment on HCT-15 colon and with CAKI-1 renal was > 100 µM each time. Moreover, the concentration for total growth inhibition (TGI) with SNB-19 CNS and in the experiment on M14 melanoma was > 100 µM in each case.

For `COc1ccc(/C=C\c2cc(OC)c(OC)c(OC)c2)c(O)c1O`, the GI50 is 0.0512 µM in the experiment with LOX IMVI melanoma; 0.249 µM in the experiment with SF-268 CNS; < 0.0322 µM and 0.111 µM in the experiment on RXF 393 renal; 0.456 µM in the experiment on MOLT-4 leukemia; 0.0628 µM and 0.0643 µM in the experiment on HCT-15 colon; 0.0517 µM and 0.05 µM in the experiment on SNB-19 CNS. For the same compound, the TGI with LOX IMVI melanoma is 16.9 µM and 8.07 µM; in the experiment on SF-268 CNS, 37.8 µM and 32 µM; in the experiment on RXF 393 renal it was 36 µM and 6.31 µM; with MOLT-4 leukemia, 20.8 µM and 3.4 µM; in the experiment on HCT-15 colon, > 57.5 µM and 8.27 µM; in the experiment with COLO 205 colon, 30.1 µM and 90.2 µM. The TGI with SNB-19 CNS came to 85.3 µM; with M14 melanoma, 9.95 µM.

For `O=C(c1ccccc1)c1c(CC(O)c2ccccc2)n(C(=O)c2ccccc2)c2ccccc12` (stereo unspecified), the TGI is > 100 µM in the experiment on SF-268 CNS; 54.4 µM in the experiment with MOLT-4 leukemia; 72.8 µM with SR leukemia; > 100 µM with HCT-15 colon; > 100 µM with CAKI-1 renal; > 100 µM with COLO 205 colon. The TGI with SNB-19 CNS and with M14 melanoma was > 100 µM each time.

Turning to `CN(C)CCC1(C2=CCCC2)CC/C(=C\c2ccccc2Cl)C1=O` (stereo unspecified), the TGI in the experiment with SF-268 CNS stood at 28.7 µM; in the experiment on RXF 393 renal, 17.5 µM; in the experiment with MOLT-4 leukemia it was 18.3 µM; in the experiment with HCT-15 colon, 19.4 µM; in the experiment on COLO 205 colon it was 41 µM; in the experiment with SNB-19 CNS, 27.8 µM. The same compound came in with a TGI in the experiment with M14 melanoma of 26.8 µM.

In the case of `CSc1ccc(C2=NN(C(C)=O)C(c3ccc(F)cc3)C2)cc1` (stereo unspecified), the GI50 with LOX IMVI melanoma was 10.8 µM; in the experiment with SF-268 CNS it was 14.9 µM; in the experiment on RXF 393 renal, 18.5 µM; in the experiment on MOLT-4 leukemia, 2.36 µM; with HCT-15 colon, 19.9 µM; in the experiment on CAKI-1 renal, 12.9 µM. Further, the GI50 with COLO 205 colon was 13.2 µM; in the experiment with SNB-19 CNS, 8.19 µM; in the experiment on M14 melanoma it was 14.4 µM. The TGI in the experiment with LOX IMVI melanoma was 23.2 µM; in the experiment with SF-268 CNS, 42.5 µM; in the experiment with RXF 393 renal, 34.6 µM; in the experiment on MOLT-4 leukemia, 9.69 µM; in the experiment on HCT-15 colon, > 100 µM; in the experiment on CAKI-1 renal, 42.2 µM. The TGI in the experiment on COLO 205 colon worked out at 31.4 µM; with SNB-19 CNS it was 37 µM; in the experiment with M14 melanoma it was 28.8 µM.

With `NNC(=S)Nc1cccc(Cl)c1`, the TGI with LOX IMVI melanoma, with SF-268 CNS, in the experiment with RXF 393 renal, in the experiment on MOLT-4 leukemia, in the experiment on HCT-15 colon and in the experiment with CAKI-1 renal was > 100 µM in each case. Besides, the TGI with COLO 205 colon, with SNB-19 CNS and in the experiment with M14 melanoma was > 100 µM in each case.
